Assay results taken from US11384075B2, “Quinolinone compounds” (Janssen Pharmaceutica NV, priority 2017, dated 2022).

Columns and labels:
[1] = target: T1, human FGFR3 V555L enzyme (cytoplasmic domain carrying V555L mutation) (Homo sapiens, UniProt P22607, V555L); experiment: FGFR3 V555L mobility shift assay (enzymatic assay); type: biochemical; conditions: 40 μM ATP, 50 minutes at 30° C., Caliper EZ reader II
T1 construct: human FGFR3 V555L enzyme (cytoplasmic domain carrying V555L mutation, from Carna Biosciences); purchased Carna Biosciences
Description: FGFR3 V555L Mobility Shift Assay (Enzymatic Assay)
In a final reaction volume of 25 μL, 0.04 ng/μL human FGFR3 V555L enzyme (cytoplasmic domain carrying V555L mutation, from Carna Biosciences) was incubated with 40 μM ATP, 1 μM FL-peptide 30 substrate and 250 nL of testing compound (1% DMSO final) in assay buffer (100 mM HEPES pH 7.4, 10 mM MgCl2, 0.003% Brij35, 1 mM DTT). After incubation for 50 minutes at 30° C. the reaction was stopped with 10 μL of 0.5M EDTA pH 8.0, and then 25 μL of reaction mixture was transferred to reading plate and measured on Caliper EZ reader II. The substrate-product conversion rate was used as raw data for normalization and concentration-response curve (10 dose points with 4× serial dilution, starting with 10 μM) was plotted using Prism to calculate IC50 (M), pIC50 (−log IC50) and HillSlope value.

[2] = target: T2, human FGFR3 V555M enzyme (cytoplasmic domain carrying V555M mutation) (Homo sapiens, UniProt P22607, V555M); experiment: FGFR3 V555M mobility shift assay (enzymatic assay); type: biochemical; conditions: 30 μM ATP, 45 minutes at 30° C., Caliper EZ reader II
T2 construct: human FGFR3 V555M enzyme (cytoplasmic domain carrying V555M mutation, from Carna Biosciences); purchased Carna Biosciences
Outline: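 Cytoplasmic-domain FGFR3 V555M (0.04 ng/μL) with 30 μM ATP and 1 μM FL-peptide 30 in HEPES pH 7.4/MgCl2/Brij35/DTT, 1% DMSO, 45 min at 30 °C, EDTA-stopped. Mobility-shift read of substrate-product conversion; 10-point 4× dilution from 10 μM fitted for IC50/pIC50.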

[3] = target: T3, human FGFR3 wild type enzyme (cytoplasmic domain) (Homo sapiens, UniProt P22607); experiment: FGFR3 wild type mobility shift assay (enzymatic assay); type: biochemical; conditions: 75 μM ATP, 50 minutes at 30° C., Caliper EZ reader II
T3 construct: human FGFR3 wild type enzyme (cytoplasmic domain, from Carna Biosciences); purchased Carna Biosciences
Outline: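 Cytoplasmic domain of human wild-type FGFR3 (0.04 ng/μL) with 75 μM ATP and 1 μM FL-peptide 30, pH 7.4 HEPES/MgCl2 buffer, 1% DMSO, 50 min at 30 °C, EDTA-stopped. Substrate-product conversion read by mobility shift. IC50, pIC50 and Hill slope from 10-point 4-fold dilutions starting at 10 μM.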

[4] = tested on: NIH/3T3 cells transfected with the same control vector; experiment: NIH/3T3 mock cell proliferation assay (counter assay, general toxicity); type: cell-based; conditions: Mus musculus, NIH3T3, 72 h, 72-hr incubation, CellTiter Glo, starting with 30 μM; counter assay for general toxicity; read-out: NIH/3T3 MOCK CTG (IC50)
Outline: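 Control-vector NIH/3T3 cells, 30,000/well in DMEM with 10% FBS, exposed 72 h at 37 °C to compound (9 points, 3-fold from 30 μM, 0.3% DMSO). CellTiter-Glo luminescence normalized to survival %; IC50, pIC50 and Hill slope from concentration-response fit.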

[5] = target: T4, NIH/3T3 cells overexpressing FGFR3 V555M-TACC3 fusion protein (Homo sapiens, UniProt P22607, V555M, cells depend on it); experiment: NIH/3T3 FGFR3 V555M-TACC3 cell proliferation assay; type: cell-based; conditions: 72-hr incubation, CellTiter Glo, starting with 10 μM; read-out: NIH/3T3 FGFR3 V555M-TACC3 CTG (IC50)
T4 construct: NIH/3T3 FGFR3 V555M-TACC3 CTG (IC50); other: 72-hr incubation, CellTiter Glo, starting with 10 μM; fused on or other part: Q9Y6A5 (Transforming acidic coiled-coil-containing protein 3)
Outline: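 NIH/3T3 cells overexpressing FGFR3 V555M-TACC3 fusion, 30,000/well in DMEM/10% FBS, treated for 72 h at 37 °C with 9 doses (4× dilutions from 10 μM top, 0.1% DMSO). CellTiter-Glo luminescence normalised to % survival; IC50, pIC50 and Hill slope from concentration-response fits.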

[6] = target: T5, NIH/3T3 cells overexpressing FGFR3 WT-TACC3 fusion protein (Homo sapiens, UniProt P22607); experiment: NIH/3T3 FGFR3 WT-TACC3 cell proliferation assay; type: cell-based; conditions: 72-hr incubation, CellTiter Glo, starting with 10 μM; read-out: NIH/3T3 FGFR3 WT-TACC3 CTG (IC50)
T5 construct: NIH/3T3 FGFR3 WT-TACC3 CTG (IC50); other: 72-hr incubation, CellTiter Glo, starting with 10 μM; fused on or other part: Q9Y6A5 (Transforming acidic coiled-coil-containing protein 3)
Outline: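 Cells seeded overnight, then exposed 72 h at 37 °C to compound in 9-point 4-fold dilutions from 10 μM (0.1% DMSO final). Viability read by CellTiter-Glo luminescence, normalized to survival %; IC50, pIC50 and Hill slope from concentration-response fit.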

T5 sequence (P22607 whole entry, change not shown, the tested form may be a part): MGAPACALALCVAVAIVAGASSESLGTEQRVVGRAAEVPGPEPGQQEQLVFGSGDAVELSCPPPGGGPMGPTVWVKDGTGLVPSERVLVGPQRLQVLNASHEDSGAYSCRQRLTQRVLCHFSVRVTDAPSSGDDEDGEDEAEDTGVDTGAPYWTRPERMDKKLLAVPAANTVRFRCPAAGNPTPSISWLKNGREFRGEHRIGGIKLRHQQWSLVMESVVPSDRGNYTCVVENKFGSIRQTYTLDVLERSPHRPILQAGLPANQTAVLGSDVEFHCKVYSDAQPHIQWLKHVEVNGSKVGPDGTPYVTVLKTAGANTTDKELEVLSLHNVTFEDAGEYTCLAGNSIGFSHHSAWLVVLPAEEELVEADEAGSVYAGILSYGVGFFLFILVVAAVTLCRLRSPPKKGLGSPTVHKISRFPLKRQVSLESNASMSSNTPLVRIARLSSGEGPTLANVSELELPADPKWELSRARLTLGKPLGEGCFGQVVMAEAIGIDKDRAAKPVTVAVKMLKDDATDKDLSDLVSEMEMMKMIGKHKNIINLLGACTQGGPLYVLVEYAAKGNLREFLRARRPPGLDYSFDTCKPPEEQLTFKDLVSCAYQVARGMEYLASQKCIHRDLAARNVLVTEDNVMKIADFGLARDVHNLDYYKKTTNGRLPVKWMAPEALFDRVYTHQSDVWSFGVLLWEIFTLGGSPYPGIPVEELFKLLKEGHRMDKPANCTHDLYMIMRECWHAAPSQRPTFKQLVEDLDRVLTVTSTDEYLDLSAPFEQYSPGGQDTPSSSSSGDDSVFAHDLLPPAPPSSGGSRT
T4 sequence (P22607 whole entry V555M, the tested form may be a part): as the sequence (P22607 whole entry, change not shown, the tested form may be a part) above, with V555M counted along it
T3 sequence (P22607 397-806 limits assumed): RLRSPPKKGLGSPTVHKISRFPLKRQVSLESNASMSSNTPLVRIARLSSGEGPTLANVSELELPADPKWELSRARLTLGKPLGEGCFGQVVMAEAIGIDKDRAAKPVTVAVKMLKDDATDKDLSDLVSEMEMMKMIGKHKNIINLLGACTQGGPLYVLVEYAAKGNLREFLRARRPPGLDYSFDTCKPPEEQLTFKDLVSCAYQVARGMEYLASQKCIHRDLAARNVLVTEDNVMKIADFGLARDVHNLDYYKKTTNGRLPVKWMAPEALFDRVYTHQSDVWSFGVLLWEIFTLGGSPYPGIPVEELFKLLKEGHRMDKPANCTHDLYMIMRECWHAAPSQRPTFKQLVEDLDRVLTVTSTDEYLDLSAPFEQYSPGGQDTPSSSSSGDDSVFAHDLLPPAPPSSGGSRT
T2 sequence (P22607 397-806 V555M limits assumed): as the sequence (P22607 397-806 limits assumed) above, with V159M counted along it
T1 sequence (P22607 397-806 V555L limits assumed): as the sequence (P22607 397-806 limits assumed) above, with V159L counted along it

| Compound | IC50 [1] | IC50 [2] | IC50 [3] | IC50 [4] | GI50 [5] | GI50 [6] |
| --- | --- | --- | --- | --- | --- | --- |
| C[C@H](Nc1c(-c2nc3ccc(OC4CCN(C)CC4)cc3[nH]2)c(=O)[nH]c2ccccc12)c1ccccn1 [Compound 64, (S)-3-(6-((1-Methylpiperidin-4-yl)oxy)-1H-benzo[d]imidazol-2-yl)-4-((1-(pyridin-2-yl)-ethyl)amino)quinolin-2(1H)-one] | 0.504 nM | 0.263 nM | 0.369 nM |  |  |  |
| C[C@H](Nc1c(-c2nc3ccc(N4CCOCC4)cc3[nH]2)c(=O)[nH]c2ccccc12)c1ccccn1 [Compound 55, (S)-3-(6-Morpholino-1H-benzo[d]imidazol-2-yl)-4-((1-(pyridin-2-yl)ethyl)amino)-quinolin-2(1H)-one] | 1.25 nM | 0.538 nM | 1.76 nM | 460 nM | 34.3 nM |  |
| CC(Nc1c(-c2nc3cc(C(F)(F)F)c(N4CCC(C(=O)O)CC4)cc3[nH]2)c(=O)[nH]c2ccccc12)c1ncccn1 (single isomer, unassigned) [Compound 58, (S*)-1-(2-(2-oxo-4-((1-(pyrimidin-2-yl)ethyl)amino)-1,2-dihydroquinolin-3-yl)-5-(trifluoromethyl)-1H-benzo[d]imidazol-6-yl)piperidine-4-carboxylic acid] |  | 0.382 nM | 0.545 nM | 8240 nM | 28.9 nM | 4.19 nM |
| CC(Nc1c(-c2nc3ccc(N4CCOCC4)cc3[nH]2)c(=O)[nH]c2ccccc12)c1ccn(C(C)C)n1 (single isomer, unassigned) [Compound 36b, (S*)-4-((1-(1-isopropyl-1H-pyrazol-3-yl)ethyl)amino)-3-(6-morpholino-1H-benzo[d]-imidazol-2-yl)quinolin-2(1H)-one] |  | 2.35 nM | 7.32 nM | 1520 nM | 170 nM | 315 nM |
| CC(Nc1c(-c2nc3ccc(N4CCN(C)CC4)c(F)c3[nH]2)c(=O)[nH]c2ccccc12)c1ccccn1 (single isomer, unassigned) [Compound 13b, (S*)-3-(7-fluoro-6-(4-methylpiperazin-1-yl)-1H-benzo[d]imidazol-2-yl)-4-((1-(pyridin-2-yl)ethyl)amino)quinolin-2(1H)-one] |  | 0.449 nM | 1.05 nM | 1740 nM | 4.34 nM | 3.46 nM |
| Cc1c(N2CCOCC2)ccc2nc(-c3c(N[C@@H](C)c4ncccn4)c4ccccc4[nH]c3=O)[nH]c12 [Compound 47, (S)-3-(7-methyl-6-morpholino-1H-benzo[d]imidazol-2-yl)-4-((1-(pyrimidin-2-yl)-ethyl)amino)quinolin-2(1H)-one] |  | 0.27 nM | 0.67 nM | 547 nM | 12.3 nM | 16 nM |
| CC(Nc1c(-c2nc3cc(C(F)(F)F)c(N4CCN(C)CC4)cc3[nH]2)c(=O)[nH]c2ccccc12)c1ncccn1 (single isomer, unassigned) [Compound 25a, (S*)-3-(6-(4-methylpiperazin-1-yl)-5-(trifluoromethyl)-1H-benzo[d]imidazol-2-yl)-4-((1-(pyrimidin-2-yl)ethyl)amino)quinolin-2(1H)-one] |  | 1.03 nM | 1.22 nM | 2260 nM | 4.82 nM | 5.16 nM |
| C[C@H](Nc1c(-c2nc3ccc(N4CCOC(C(=O)O)C4)cc3[nH]2)c(=O)[nH]c2ccccc12)c1ccccn1 (mixture of isomers) [Compound 60, (Rac)-4-(2-(2-oxo-4-(((S)-1-(pyridin-2-yl)ethyl)amino)-1,2-dihydroquinolin-3-yl)-1H-benzo[d]imidazol-6-yl)morpholine-2-carboxylic acid] |  | 0.603 nM | 1.18 nM | > 30000 nM | 1620 nM | 1280 nM |
| COC(=O)C1CCN(c2ccc3nc(-c4c(N[C@@H](C)c5ccccn5)c5ccccc5[nH]c4=O)[nH]c3c2)CC1 [Compound 7, (S)-Methyl-1-(2-(2-oxo-4-((1-(pyridin-2-yl)ethyl)amino)-1,2-dihydroquinolin-3-yl)-1H-benzo[d]imidazol-6-yl)piperidine-4-carboxylate] |  | 1.3 nM | 1.83 nM | 858 nM | 99.7 nM | 19.8 nM |
| C[C@H](Nc1c(-c2nc3ccc(N4CCN(C)C(=O)C4)cc3[nH]2)c(=O)[nH]c2ccccc12)c1ccccn1 [Compound 15, (S)-3-(6-(4-methyl-3-oxopiperazin-1-yl)-1H-benzo[d]imidazol-2-yl)-4-((1-(pyridin-2-yl)ethyl)amino)quinolin-2(1H)-one] |  | 0.351 nM | 0.851 nM | 1190 nM | 24.9 nM | 12.4 nM |
| C[C@H](Nc1c(-c2nc3ccc(N4CCCCC4)cc3[nH]2)c(=O)[nH]c2ccccc12)c1ncccn1 (single isomer, unassigned) [Compound 28a, (S*)-3-(6-(piperidin-1l-yl)-1H-benzo[d]imidazol-2-yl)-4-((1-(pyrimidin-2-yl)ethyl)-amino)quinolin-2(1H)-one] |  | 0.302 nM | 0.552 nM | 7220 nM | 8.35 nM | 5.49 nM |
| CC(Nc1c(-c2nc3ccc(N4CCN(CCC(F)(F)F)CC4)cc3[nH]2)c(=O)[nH]c2ccccc12)c1ncccn1 (single isomer, unassigned) [Compound 41a, (S*)-4-((1-(pyrimidin-2-yl)ethyl)amino)-3-(6-(4-(3,3,3-trifluoropropyl)piperazin-1-yl)-1H-benzo[d]imidazol-2-yl)quinolin-2(1H)-one] |  | 0.485 nM | 0.668 nM | 6970 nM | 5.01 nM | 7.08 nM |
| CC(Nc1c(-c2nc3ccc(N4CCOCC4)c(F)c3[nH]2)c(=O)[nH]c2ccccc12)c1ncccn1 (single isomer, unassigned) [Compound 23a, (S*)-3-(7-fluoro-6-morpholino-1H-benzo[d]imidazol-2-yl)-4-((1-(pyrimidin-2-yl)-ethyl)amino)quinolin-2(1H)-one] |  | 0.245 nM | 0.591 nM | 15300 nM | 13.4 nM | 8.34 nM |
| CC(Nc1c(-c2nc3ccc(N4C[C@@H](C)O[C@@H](C)C4)cc3[nH]2)c(=O)[nH]c2ccccc12)c1ncccn1 (single isomer, unassigned) [Compound 22a, 3-(6-((2S,6R)-2,6-dimethylmorpholino)-1H-benzo[d]imidazol-2-yl)-4-(((S*)-1-(pyrimidin-2-yl)ethyl)amino)quinolin-2(1H)-one] |  | 0.421 nM | 0.445 nM | 6390 nM | 6.48 nM | 13.3 nM |
